Data published in PMC8445441, “Elucidating the mechanism by which synthetic helper peptides sensitize Pseudomonas aeruginosa to multiple antibiotics” (PLoS Pathogens, 2021).
Like-named read-outs stand apart in the source and are kept apart here.

Key:
[1] = test system: P. aeruginosa AUMC-Pa-3; assay: microbe, parasite or virus in culture; settings: for MIC: Pseudomonas aeruginosa, AUMCPA3, 18 h, read-out: MICa: MIC of the antibiotic; for FICI / MICac: MIC of the antibiotic in the combination: strain AUMC-Pa-3; for FICI: antibiotic + D-11 (MICb/MICbc 128/4); for MICac: MIC of the antibiotic in the combination: with D-11 at MICbc 4, unit not given
Method in brief: (§1)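 Growth inhibition was scored by eye after an 18 h, 37 °C incubation of drug-bacteria mixtures in Mueller-Hinton broth. Inoculum suspension held approximately 1 × 10^6 CFU/mL before 1:1 mixing.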

[2] = test system: P. aeruginosa AUMC-Pa-4; assay: microbe, parasite or virus in culture; settings: for MIC: Pseudomonas aeruginosa, AUMCPA4, 18 h, read-out: MICa: MIC of the antibiotic; for FICI / MICac: MIC of the antibiotic in the combination: strain AUMC-Pa-4; for FICI: antibiotic + D-11 (MICb/MICbc 128/4); for MICac: MIC of the antibiotic in the combination: with D-11 at MICbc 4, unit not given
Method in brief: as §1

[3] = test system: P. aeruginosa AUMC-Pa-5; assay: microbe, parasite or virus in culture; settings: strain AUMC-Pa-5; for FICI: antibiotic + D-11 (MICb/MICbc 64/4); for MICa: MIC of the antibiotic: antibiotic alone; for MICa: MIC of the antibiotic / MICac: MIC of the antibiotic in the combination: unit not given; for MICac: MIC of the antibiotic in the combination: with D-11 at MICbc 4
Method in brief: as §1

[4] = test system: P. aeruginosa AUMC-Pa-6; assay: microbe, parasite or virus in culture; settings: strain AUMC-Pa-6; for FICI: antibiotic + D-11 (MICb/MICbc 64/4); for MICa: MIC of the antibiotic: antibiotic alone; for MICa: MIC of the antibiotic / MICac: MIC of the antibiotic in the combination: unit not given; for MICac: MIC of the antibiotic in the combination: with D-11 at MICbc 4
Method in brief: as §1

[5] = test system: P. aeruginosa PAO1; assay: microbe, parasite or virus in culture; settings: for MIC: Pseudomonas aeruginosa, PAO1, 18 h
Method in brief: as §1

[6] = test system: P. aeruginosa ATCC27853; assay: microbe, parasite or virus in culture; parameters: MICa: MIC of the antibiotic / MICac: MIC of the antibiotic in the combination: unit not given beside the values; settings: for MIC: Pseudomonas aeruginosa, ATCC27853, 18 h, read-out: MICa: MIC of the antibiotic; for FICI / MICac: MIC of the antibiotic in the combination: strain ATCC27853; for FICI: antibiotic + D-11 (MICb/MICbc 32/4); for MICac: MIC of the antibiotic in the combination: with D-11 at MICbc 4, unit not given
Method in brief: as §1

[7] = test system: P. aeruginosa NR-31040; assay: microbe, parasite or virus in culture; parameters: MICa: MIC of the antibiotic / MICac: MIC of the antibiotic in the combination: unit not given beside the values; settings: for FICI: antibiotic + D-11 (MICb/MICbc 128/4); for MICac: MIC of the antibiotic in the combination: with D-11 at MICbc 4
Method in brief: as §1

[8] = test system: P. aeruginosa NR-31041; assay: microbe, parasite or virus in culture; parameters: MICa: MIC of the antibiotic / MICac: MIC of the antibiotic in the combination: unit not given beside the values; settings: for MIC: Pseudomonas aeruginosa, NR31041, 18 h, read-out: MICa: MIC of the antibiotic; for FICI / MICac: MIC of the antibiotic in the combination: strain NR-31041; for FICI: antibiotic + D-11 (MICb/MICbc 64/4); for MICac: MIC of the antibiotic in the combination: with D-11 at MICbc 4, unit not given
Method in brief: as §1

[9] = test system: P. aeruginosa PA14; assay: microbe, parasite or virus in culture; parameters: MICa: MIC of the antibiotic / MICac: MIC of the antibiotic in the combination: unit not given beside the values; settings: for MIC: Pseudomonas aeruginosa, PA14, 18 h, read-out: MICa: MIC of the antibiotic; for FICI / MICac: MIC of the antibiotic in the combination: strain PA14; for FICI: antibiotic + D-11 (MICb/MICbc 128/4); for MICac: MIC of the antibiotic in the combination: with D-11 at MICbc 4, unit not given
Method in brief: as §1

[10] = test system: P. aeruginosa PAK; assay: microbe, parasite or virus in culture; parameters: MICa: MIC of the antibiotic / MICac: MIC of the antibiotic in the combination: unit not given beside the values; settings: for MIC: Pseudomonas aeruginosa, 18 h, read-out: MICa: MIC of the antibiotic; for FICI / MICac: MIC of the antibiotic in the combination: strain PAK; for FICI: antibiotic + D-11 (MICb/MICbc 64/4); for MICac: MIC of the antibiotic in the combination: with D-11 at MICbc 4, unit not given
Method in brief: as §1

[11] = test system: P. aeruginosa HM-214; settings: strain HM-214; antibiotic + D-11 (MICb/MICbc 128/4)
Method in brief: as §1

[12] = test system: P. aeruginosa AUMC-Pa-1; settings: strain AUMC-Pa-1; antibiotic + D-11 (MICb/MICbc 128/4)
Method in brief: as §1

[13] = test system: P. aeruginosa AUMC-Pa-2; settings: strain AUMC-Pa-2; antibiotic + D-11 (MICb/MICbc 64/4)
Method in brief: as §1

[14] = test system: clinical P. aeruginosa isolates; assay: microbe, parasite or virus in culture; settings: Pseudomonas aeruginosa, 18 h
Method in brief: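 Broth microdilution per CLSI in MHB, two-fold drug dilutions mixed with an equal volume of bacteria at about 1 × 10^6 CFU/mL. After 18 h at 37 °C, MIC taken as the lowest concentration with no visible growth; run in triplicate.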

[15] = S3 Table, PAO1, antibiotic + 2 μM D-11
[16] = strain NR-31040, unit not given

In the case of `CO[C@H]1[C@H](OC(=O)c2ccc(C)[nH]2)[C@H](O)[C@@H](Oc2ccc3c(O)c(NC(=O)c4c[nH]c(C(=O)Nc5c(O)c6ccc(O[C@H]7OC(C)(C)[C@@H](OC)[C@H](OC(=O)c8ccc(C)[nH]8)[C@@H]7O)c(C)c6oc5=O)c4C)c(=O)oc3c2C)OC1(C)C` [Coumermycin A1], the MIC [1] is reported as 8 µM, the FICI [1] is reported as 0.035 and the “MICac: MIC of the antibiotic in the combination” value (shortened to “MICac: MIC of the antibiotic”) [1] is reported as 0.031. The MIC [2] was 8 µM, the FICI [2] was 0.094 and the “MICac: MIC of the antibiotic” value [2] was 0.5. The FICI [3] was 0.313, the “MICa: MIC of the antibiotic” value [3] was 8 and the “MICac: MIC of the antibiotic” value [3] was 2. The FICI [4] was 0.313, the “MICa: MIC of the antibiotic” value [4] was 8 and the “MICac: MIC of the antibiotic” value [4] was 2. For the same compound, the “reduction of the MICs” value ([5]; PAO1, in the presence of 4 μM of D-11) was 512 fold, the MIC ([5]; read-out: MICa: the MIC of antibiotics) was 8 µM and the FICI [5, 15] was 0.078. For the same compound, the “MICac: the MIC for the antibiotic in the combination” value (“MICac: the MIC for the antibiotic” below) ([5]; S3 Table, PAO1, with 2 μM D-11) was 0.125 µM, the “MICac: the MIC for the antibiotic” value ([5]; S3 Table, PAO1, with 4 μM D-11) was 0.01562 µM and the “MICa: the MIC of antibiotics” value ([5]; S3 Table, antibiotic alone, PAO1) was 8 µM. For the same compound, the MIC [6] was 8 µM, the FICI [6] was 0.156 and the “MICac: MIC of the antibiotic” value [6] was 0.5. For the same compound, the FICI ([7]; strain NR-31040) was 0.281, the “MICa: MIC of the antibiotic” value ([7]; strain NR-31040, antibiotic alone, unit not given) was 8 and the “MICac: MIC of the antibiotic” value [7, 16] was 2. The MIC [8] was 8 µM, the FICI [8] was 0.078 and the “MICac: MIC of the antibiotic” value [8] was 0.125. The MIC [9] was 8 µM, the FICI [9] was 0.094 and the “MICac: MIC of the antibiotic” value [9] was 0.5. The MIC [10] was 8 µM, the FICI [10] was 0.125 and the “MICac: MIC of the antibiotic” value [10] was 0.5. It also gave an FICI [11] of 0.281, an FICI [12] of 0.039 and an FICI [13] of 0.094. It also gave an MIC ([14]; read-out: Antibiotic sensibility (MIC) of clinical P. aeruginosa isolate AUMC-Pa-1) of 8 µM, an MIC ([14]; read-out: Antibiotic sensibility (MIC) of clinical P. aeruginosa isolate AUMC-Pa-2) of 8 µM and an MIC ([14]; read-out: Antibiotic sensibility (MIC) of clinical P. aeruginosa isolate AUMC-Pa-3) of 8 µM. It also gave an MIC ([14]; read-out: Antibiotic sensibility (MIC) of clinical P. aeruginosa isolate AUMC-Pa-4) of 8 µM, an MIC ([14]; read-out: Antibiotic sensibility (MIC) of clinical P. aeruginosa isolate AUMC-Pa-5) of 8 µM and an MIC ([14]; read-out: Antibiotic sensibility (MIC) of clinical P. aeruginosa isolate AUMC-Pa-6) of 8 µM. It also gave an MIC ([14]; read-out: Antibiotic sensibility (MIC) of clinical P. aeruginosa isolate HM-214) of 8 µM, an MIC ([14]; read-out: Antibiotic sensibility (MIC) of clinical P. aeruginosa isolate NR-31040) of 8 µM and an MIC ([14]; read-out: Antibiotic sensibility (MIC) of clinical P. aeruginosa isolate NR-31041) of 8 µM.

For `CO[C@H]1/C=C/O[C@@]2(C)Oc3c(C)c(O)c4c(O)c(c(/C=N/N5CCN(C6CCCC6)CC5)c(O)c4c3C2=O)NC(=O)/C(C)=C\C=C\[C@H](C)[C@H](O)[C@@H](C)[C@@H](O)[C@@H](C)[C@H](OC(C)=O)[C@@H]1C` [Rifapentine], the MIC [1] was 8 µM, the FICI [1] was 0.035 and the “MICac: MIC of the antibiotic” value [1] was 0.031. For the same compound, the MIC [2] was 16 µM, the FICI [2] was 0.063 and the “MICac: MIC of the antibiotic” value [2] was 0.5. The FICI [3] was 0.563, the “MICa: MIC of the antibiotic” value [3] was 32 and the “MICac: MIC of the antibiotic” value [3] was 16. The FICI [4] was 0.188, the “MICa: MIC of the antibiotic” value [4] was 16 and the “MICac: MIC of the antibiotic” value [4] was 2. The MIC ([5]; read-out: MICa: the MIC of antibiotics, S3 Table, antibiotic alone, PAO1) was 32 µM, the FICI [5, 15] was 0.066 and the FICI ([5]; S3 Table, PAO1, antibiotic + 4 μM D-11) was 0.126. For the same compound, the “MICac: the MIC for the antibiotic” value ([5]; S3 Table, PAO1, with 2 μM D-11) was 0.125 µM, the “MICac: the MIC for the antibiotic” value ([5]; S3 Table, PAO1, with 4 μM D-11) was 0.03125 µM and the MIC [6] was 32 µM. The FICI [6] was 0.133, the “MICac: MIC of the antibiotic” value [6] was 0.031 and the MIC ([7]; Pseudomonas aeruginosa, NR31040, 18 h, read-out: MICa: MIC of the antibiotic) was 8 µM. For the same compound, the FICI ([7]; strain NR-31040) was 0.094, the “MICac: MIC of the antibiotic” value [7, 16] was 0.5 and the MIC [8] was 16 µM. The FICI [8] was 0.066, the “MICac: MIC of the antibiotic” value [8] was 0.063 and the MIC [9] was over 128 µM. The FICI [9] was 0.063, the “MICac: MIC of the antibiotic” value [9] was 8 and the MIC [10] was 16 µM. For the same compound, the FICI [10] was 0.070, the “MICac: MIC of the antibiotic” value [10] was 0.125 and the FICI [11] was 0.063. It also gave an FICI [12] of 0.035, an FICI [13] of 0.066 and an MIC ([14]; read-out: Antibiotic sensibility (MIC) of clinical P. aeruginosa isolate AUMC-Pa-1, strain AUMC-Pa-1, antibiotic alone) of 16 µM. It also gave an MIC ([14]; read-out: Antibiotic sensibility (MIC) of clinical P. aeruginosa isolate AUMC-Pa-2, strain AUMC-Pa-2, antibiotic alone) of 8 µM, an MIC ([14]; read-out: Antibiotic sensibility (MIC) of clinical P. aeruginosa isolate AUMC-Pa-3, strain AUMC-Pa-3, antibiotic alone) of 8 µM and an MIC ([14]; read-out: Antibiotic sensibility (MIC) of clinical P. aeruginosa isolate AUMC-Pa-4, strain AUMC-Pa-4, antibiotic alone) of 16 µM. For the same compound, the MIC ([14]; read-out: Antibiotic sensibility (MIC) of clinical P. aeruginosa isolate AUMC-Pa-5, strain AUMC-Pa-5, antibiotic alone) was 32 µM, the MIC ([14]; read-out: Antibiotic sensibility (MIC) of clinical P. aeruginosa isolate AUMC-Pa-6, strain AUMC-Pa-6, antibiotic alone) was 16 µM and the MIC ([14]; read-out: Antibiotic sensibility (MIC) of clinical P. aeruginosa isolate HM-214, strain HM-214, antibiotic alone) was 8 µM. For the same compound, the MIC ([14]; read-out: Antibiotic sensibility (MIC) of clinical P. aeruginosa isolate NR-31040, strain NR-31040, antibiotic alone) was 8 µM and the MIC ([14]; read-out: Antibiotic sensibility (MIC) of clinical P. aeruginosa isolate NR-31041, strain NR-31041, antibiotic alone) was 16 µM.
